In US20250197865A1, “PHARMACEUTICAL COMPOSITION FOR TREATMENT OR PREVENTION OF FIBROTIC DISEASE” (KYUSHU UNIVERSITY, NATIONAL UNIVERSITY CORPORATION, priority 2022, published 2025):

Columns and labels:
TGFβ/SMAD pathway = assay: SIS3 treatment of myofibroblasts from carbon tetrachloride-induced fibrotic liver, mRNA by real-time RT-PCR; format: cell-based, mouse; conditions: myofibroblasts from CCl4 liver fibrosis model; SIS3 3 μM; P4HA3, Col1α1, Col1α2, Col3α1; FIG. 26b
Source text: (§1) Hepatic stellate cells, which are involved in liver fibrosis, are known to be activated by TGFβ (Fabregat, I. et al., FEBS J., 283:2219-2232 (2016)). Therefore, the effects of TGFβ and its specific inhibitor SIS3, as well as an inhibitor of SMAD3 involved in signal transduction of the TGFβ pathway (si SMAD3), on the mRNA expression of fibrosis-related factors in […] were examined. SIS3 (CAS number: 1009104-85-1) was used under catalog number 15945 from Cayman Chemical Company. SIS3 was added to the culture medium at a final concentration of 3 μM and administered. Si SMAD3 was used as a knockdown reagent for SMAD3. si SMAD3 was used under catalog number 4390771 (Assay ID: s69495) from ThermoFisher Scientific. si SMAD3 was administered to cultured cells in the same manner as in Examples 3, 7, and 13. LX-2, a cultured hepatic stellate cell line, was cultured in DMEM supplemented with 2% FBS.
Bar graph showing the mRNA expression levels of P4HA3, 1α1 collagen (Col1α1), 1α2 collagen (Col1α2), and 3α1 collagen (Col3α1) in myofibroblasts isolated from liver tissue of a mouse model of liver damage and liver fibrosis caused by carbon tetrachloride administration and treated with SIS3, an inhibitor of the TGFβ/SMAD pathway. […] The number of samples for each group was 5.

[1] = tested on: P4HA3 and 1α1 collagen (Col1α1) mRNA expression in LX-2 cells; assay: TGFβ treatment of cultured LX-2 hepatic stellate cell line, mRNA by real-time RT-PCR; format: cell-based; conditions: TGFβ 5 ng/mL for 12 hr, FIG. 26a
Source text: as §1
First, the effect of TGFβ on the mRNA expression of P4HA3 or 1α1 collagen (Col1α1) in the cultured LX-2 cells was examined. FIG. 26a is a bar graph showing the mRNA expression level of P4HA3 or 1α1 collagen (Col1α1) in LX-2 cells treated with DMSO or TGFβ (5 ng/ML) for 12 hr. […] The number of samples for each group was 3. […] Error bars indicate standard deviation.

Compound	mRNA expression of fibrosis-related factors including P4HA3 (TGFβ/SMAD pathway)	mRNA expression of 1α1 collagen (Col1α1) [1]	mRNA expression of P4HA3 [1]
COc1cc2c(cc1OC)CN(C(=O)/C=C/c1c(-c3ccccc3)n(C)c3ncccc13)CC2 [SIS3]	suppressed	–	–
TGFβ	–	enhanced	enhanced
